Experiment: Thermal and storage stability of AuNP nanocomposites and SNOG
Format: physicochemical
Method: All of the AuNP-nanocomposites i) to iv) as well as SNOG solutions 1 mM, dissolved in distilled deionized water and containing 100 μM diethylenetriaminepentaacetic acid (DPTA) a metal chelator were stored at 5° C., 25° C. and 55° C. for 1 month. These components were then added to the testing apparatus 90 (FIG. 3) and their NO-release characteristics were compared to fresh samples.
In one simplest and most cost effective manner to prepare an AuNP-nanocomposite, cotton gauze with AuNP (˜10 nm) is prepared by a conventional citrate reduction method.
SNOG solutions (1 mM) containing DPTA (0.1 mm) decomposed ˜5% upon incubation at 40° C. for 7 days. Stability of the SNOG may be increased further by either suspending it in polyethylene glycol or dissolving it in glycerol.

decomposition of SNOG solution (SNOG solutions (1 mM) containing DPTA (0.1 mm), incubation at 40° C. for 7 days): ~5%
thermal stability of solid SNOG (solid, storage at 40° C. for one week, preliminary experiments): thermally stable
Structure (SMILES): N[C@@H](CCC(=O)N[C@@H](CSN=O)C(=O)NCC(=O)O)C(=O)O [SNOG, S-nitrosoglutathione]

Source: patent US9522260B2, “Apparatus for the controlled release of topical nitric oxide” (University of Windsor, priority 2011, dated 2016)
